Consider 20 compounds from patent US6518284B2, “4-substituted piperidines” (Faes, Fabrica Espanola de Productos Quimicos Y …, priority 1999, dated 2003).

What all share (type): binding
Assay [1] concerns the target T1, serotonin reuptake receptors (5HT) / Serotonin uptake sites (transporters) (Rattus norvegicus, UniProt P31652).
T1 construct: from tissue; host or cells: rat cerebral cortex
Put plainly: Affinity for serotonin reuptake sites, [3H]-paroxetine radioligand, rat cerebral cortex. The following applies: Rat brain; read-out: K1 values, Serotonin uptake sites (transporters). An excerpt: (§1) The pharmacological activity of the compounds of general formula (I) was determnined-using well-established in vitro and in vivo pharmacological processes.

Assay [2] deals with T2, Dopamine uptake sites (transporters) (Rattus norvegicus, UniProt P23977).
T2 construct: Uptake sites (transporters); Rat brain; from tissue; host or cells: rat brain
Put plainly: Affinity for dopamine uptake sites (transporters), rat brain. The note with it: read-out: K1 values, Dopamine uptake sites (transporters).

Assay [3] has as its target noradrenaline (NA) reuptake receptors / Noradrenaline uptake sites (transporters) (Rattus norvegicus, UniProt Q63380). As to the kind of experiment: Affinity for noradrenaline reuptake sites, [3H]-nisoxetine radioligand, rat cerebral cortex. The following applies: Rat brain, read-out: K1 values, Noradrenaline uptake sites (transporters).
Description: as §1

Read-outs that look alike come from different tables or passages of the source.

T2 sequence (P23977 whole entry): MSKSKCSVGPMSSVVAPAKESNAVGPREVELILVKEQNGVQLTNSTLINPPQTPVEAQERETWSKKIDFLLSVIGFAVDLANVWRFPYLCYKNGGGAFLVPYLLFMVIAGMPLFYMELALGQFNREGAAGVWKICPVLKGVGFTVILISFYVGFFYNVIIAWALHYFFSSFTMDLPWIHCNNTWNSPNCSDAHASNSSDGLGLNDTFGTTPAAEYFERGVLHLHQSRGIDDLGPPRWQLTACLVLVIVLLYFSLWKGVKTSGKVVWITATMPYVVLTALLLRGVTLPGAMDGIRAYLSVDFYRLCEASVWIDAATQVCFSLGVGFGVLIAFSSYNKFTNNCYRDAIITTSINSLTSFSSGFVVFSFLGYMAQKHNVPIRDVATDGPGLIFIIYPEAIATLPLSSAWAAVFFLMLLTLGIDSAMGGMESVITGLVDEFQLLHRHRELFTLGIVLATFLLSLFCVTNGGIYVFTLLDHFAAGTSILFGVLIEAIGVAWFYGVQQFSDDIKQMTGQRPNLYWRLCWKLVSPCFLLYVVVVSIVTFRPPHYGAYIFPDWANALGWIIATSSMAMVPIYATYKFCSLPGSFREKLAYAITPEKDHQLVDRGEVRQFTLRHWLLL
T1 sequence (P31652 whole entry): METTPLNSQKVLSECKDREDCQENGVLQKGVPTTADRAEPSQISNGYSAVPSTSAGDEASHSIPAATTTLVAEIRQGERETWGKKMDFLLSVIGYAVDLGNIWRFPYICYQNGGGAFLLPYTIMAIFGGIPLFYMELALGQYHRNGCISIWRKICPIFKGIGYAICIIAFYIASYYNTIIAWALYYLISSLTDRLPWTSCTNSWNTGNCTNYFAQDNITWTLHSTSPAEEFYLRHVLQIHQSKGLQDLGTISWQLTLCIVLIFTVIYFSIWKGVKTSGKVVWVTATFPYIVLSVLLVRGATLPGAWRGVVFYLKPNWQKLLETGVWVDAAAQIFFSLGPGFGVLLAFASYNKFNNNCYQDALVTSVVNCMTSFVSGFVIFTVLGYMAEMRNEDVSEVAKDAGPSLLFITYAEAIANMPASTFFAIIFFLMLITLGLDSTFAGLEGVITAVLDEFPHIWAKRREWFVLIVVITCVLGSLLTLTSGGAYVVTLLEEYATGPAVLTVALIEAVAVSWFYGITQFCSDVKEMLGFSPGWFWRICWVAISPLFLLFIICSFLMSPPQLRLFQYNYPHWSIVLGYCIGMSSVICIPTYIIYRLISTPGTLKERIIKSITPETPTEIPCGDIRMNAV
noradrenaline (NA) reuptake receptors / Noradrenaline uptake sites (transporters), sequence (Q63380 1-617): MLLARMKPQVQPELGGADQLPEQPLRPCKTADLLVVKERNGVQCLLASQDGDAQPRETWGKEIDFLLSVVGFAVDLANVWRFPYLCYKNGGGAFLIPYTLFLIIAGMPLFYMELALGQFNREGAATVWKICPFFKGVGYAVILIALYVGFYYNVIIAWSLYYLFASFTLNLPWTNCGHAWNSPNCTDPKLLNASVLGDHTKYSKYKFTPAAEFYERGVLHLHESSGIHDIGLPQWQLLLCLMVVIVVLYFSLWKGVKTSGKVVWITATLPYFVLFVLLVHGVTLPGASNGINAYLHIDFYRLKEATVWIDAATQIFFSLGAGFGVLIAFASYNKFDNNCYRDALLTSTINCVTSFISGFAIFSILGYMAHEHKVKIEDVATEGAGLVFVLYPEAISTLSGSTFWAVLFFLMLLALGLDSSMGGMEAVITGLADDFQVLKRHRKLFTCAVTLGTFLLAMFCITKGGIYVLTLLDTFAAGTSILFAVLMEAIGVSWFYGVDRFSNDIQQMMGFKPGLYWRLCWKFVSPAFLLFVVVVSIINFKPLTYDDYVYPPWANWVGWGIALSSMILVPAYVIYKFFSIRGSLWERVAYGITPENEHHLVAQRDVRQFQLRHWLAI

Consider `Fc1ccc(O[C@@H](c2ccccc2)C2CCNCC2)cc1` [Compound F-97814-TA], for which the Ki in assay [1] was determined as 0.45 nM; in assay [2], 0.821 µM.
For `Fc1ccc(O[C@H](c2ccccc2)C2CCNCC2)cc1` [Compound F-97815-TA], the Ki in assay [1] came out at 45.9 nM; in assay [3] it was 1.45 µM; in assay [2], 0.253 µM.
Regarding `Fc1cccc(O[C@@H](c2ccccc2)C2CCNCC2)c1` [Compound F-98212-TA], the results for the Ki in assay [3] and in assay [2] (bounds given in μM) were 0.107 µM and over 1 µM, respectively.
Take `Fc1cccc(O[C@H](c2ccccc2)C2CCNCC2)c1` [Compound F-98214-TA]: the Ki in assay [3] came out at 0.0135 µM; in assay [2], 0.461 µM.
With `FC(F)(F)c1ccc(OC(c2ccccc2)C2CCNCC2)cc1` (stereo not drawn) [Compound F-98404-TA], the Ki in assay [1] is 14.9 nM; in assay [3] (bounds given in μM) it was over 10 µM; in assay [2] (bounds given in μM), over 1 µM.
The matching figures for `FC(F)(F)c1ccc(O[C@H](c2ccccc2)C2CCNCC2)cc1` [Compound F-98408-TA]: 34.8 nM, over 10 µM and over 1 µM.
As to `O=[N+]([O-])c1ccc(O[C@H](c2ccccc2)C2CCNCC2)cc1` [Compound F-98603-PD], the Ki in assay [1] was 0.63 nM; in assay [3] (bounds given in μM), over 1 µM; in assay [2] (bounds given in μM), over 10 µM.
With `Fc1ccccc1O[C@H](c1ccccc1)C1CCNCC1` [Compound F-98607-PD], the Ki was 4.2 nM in assay [1], 0.0225 µM in assay [3] and over 1 µM in assay [2] (bounds given in μM).
On to `O=[N+]([O-])c1ccc(OC(c2ccccc2)C2CCNCC2)cc1` (stereo not drawn) [Compound F-98610-PD], for which the Ki in assay [1] is 15.1 nM; in assay [3] (bounds given in μM), over 1 µM; in assay [2] (bounds given in μM) it was over 1 µM.
Consider `Clc1cccc(O[C@@H](c2ccccc2)C2CCNCC2)c1` [Compound F-98616-TA], for which the Ki in assay [3] is 0.0558 µM; in assay [2] (bounds given in μM) it was over 1 µM.
Regarding `Clc1cccc(O[C@H](c2ccccc2)C2CCNCC2)c1` [Compound F-98620-TA], the Ki in assay [2] (bounds given in μM) was over 1 µM.
Turning to `N#Cc1cccc(O[C@H](c2ccccc2)C2CCNCC2)c1` [Compound F-98715-TA], the Ki turned out to be 1.68 nM in assay [1], 0.0869 µM in assay [3] and 0.11 µM in assay [2].
Turning to `N#Cc1cccc(OC(c2ccccc2)C2CCNCC2)c1` (stereo not drawn) [Compound F-98716-TA], the Ki in assay [1] is 1.43 nM; in assay [3], 0.18 µM; in assay [2] (bounds given in μM) it was over 1 µM.
Take `Fc1ccccc1O[C@@H](c1ccccc1)C1CCNCC1` [Compound F-98718-PD]: the Ki in assay [1] was 28.5 nM; in assay [3] it was 0.0414 µM; in assay [2], 0.52 µM.
With `Fc1cc(F)cc(O[C@H](c2ccccc2)C2CCNCC2)c1` [Compound F-98814-TA], the Ki in assay [1] was 1.4 nM; in assay [3], 0.0248 µM; in assay [2] (bounds given in μM), over 1 µM.
`Fc1cc(F)cc(O[C@@H](c2ccccc2)C2CCNCC2)c1` [Compound F-98822-TA]: the results for the Ki in assay [1], in assay [3] and in assay [2] (bounds given in μM) were 7.09 nM, 0.386 µM and over 1 µM, respectively.
On to `Fc1cccc(O[C@H](c2cccc(F)c2)C2CCNCC2)c1` [Compound F-98828-PD], for which the Ki stood at 9.99 nM in assay [1], 0.128 µM in assay [3] and 0.113 µM in assay [2].
Turning to `Fc1cccc(O[C@@H](c2cccc(F)c2)C2CCNCC2)c1` [Compound F-98829-PD], the Ki is 2.83 nM in assay [1], 0.0175 µM in assay [3] and over 1 µM in assay [2] (bounds given in μM).
With `Fc1cccc([C@H](Oc2ccccc2F)C2CCNCC2)c1` [Compound F-98917-PD], the Ki in assay [1] is 4.3 nM; in assay [3], 0.0191 µM; in assay [2] (bounds given in μM), over 1 µM.
As for `Fc1cccc([C@@H](Oc2ccccc2F)C2CCNCC2)c1` [Compound F-98925-PD], the Ki in assay [1] was determined as 27.6 nM; in assay [3] it was 0.0481 µM; in assay [2], 0.377 µM.
